Measured values as given in the NIST ThermoML archive (doi:10.1021/je700260f).

Details: 323.14 K, Liquid, Vibrating tube method

FC(C(F)(F)F)C(F)(F)F [1,1,1,2,3,3,3-heptafluoropropane]
Details	mass density [kg/m3]
22058 kPa	1431.1
22088 kPa	1431.3
22114 kPa	1431.5
22137 kPa	1431.4
22174 kPa	1431.7
22209 kPa	1431.8
22233 kPa	1432
22272 kPa	1432.1
22308 kPa	1432.2
22334 kPa	1432.5
22366 kPa	1432.6
22390 kPa	1432.7
22418 kPa	1432.7
22439 kPa	1432.9
22462 kPa	1433.1
22489 kPa	1433.2
22513 kPa	1433.3
22533 kPa	1433.3
22571 kPa	1433.6
22602 kPa	1433.6
22627 kPa	1433.8
22657 kPa	1434
22685 kPa	1434.1
22721 kPa	1434.2
22744 kPa	1434.3
22777 kPa	1434.5
22801 kPa	1434.6
22825 kPa	1434.6
22862 kPa	1434.8
22889 kPa	1435
22927 kPa	1435.2
22962 kPa	1435.2
23026 kPa	1435.6
23049 kPa	1435.7
23075 kPa	1435.7
23101 kPa	1436
23130 kPa	1436.1
23163 kPa	1436.3
23185 kPa	1436.3
23221 kPa	1436.4
23254 kPa	1436.5
23276 kPa	1436.7
23305 kPa	1436.8
23328 kPa	1437
23354 kPa	1437.1
23380 kPa	1437.2
23402 kPa	1437.2
23428 kPa	1437.5
23454 kPa	1437.5
23484 kPa	1437.7
23510 kPa	1437.7
23538 kPa	1437.9
23560 kPa	1438
23587 kPa	1438.1
23609 kPa	1438.2
23776 kPa	1439
23810 kPa	1439
23832 kPa	1439.2
23865 kPa	1439.2
23891 kPa	1439.5
23918 kPa	1439.6
23949 kPa	1439.6
23975 kPa	1439.9
23998 kPa	1439.9
24025 kPa	1440
24056 kPa	1440
24079 kPa	1440.3
24109 kPa	1440.4
24134 kPa	1440.5
24156 kPa	1440.7
24187 kPa	1440.7
24223 kPa	1440.9
24254 kPa	1441.1
24277 kPa	1441.2
24304 kPa	1441.1
24342 kPa	1441.4
24400 kPa	1441.5
24420 kPa	1441.7
24564 kPa	1442.3
24596 kPa	1442.6
24658 kPa	1442.8
24699 kPa	1443
24727 kPa	1443.1
24768 kPa	1443.2
24794 kPa	1443.4
24828 kPa	1443.6
24859 kPa	1443.8
24889 kPa	1443.8
24914 kPa	1444
24955 kPa	1444.1
24984 kPa	1444.1
25017 kPa	1444.3
25047 kPa	1444.4
25081 kPa	1444.7
25116 kPa	1444.8
25141 kPa	1445
25410 kPa	1446.1
25440 kPa	1446.3
25947 kPa	1448.3
25974 kPa	1448.4
26063 kPa	1448.8
26227 kPa	1449.5
26309 kPa	1449.7
